Experimental data taken from EPA's ToxValDB 9.5.

Columns and labels:
Rattus norvegicus [1] = settings: short-term; duration: 28 days; oral; gavage; Wistar
Rattus norvegicus [2] = experiment: LD0; higher = less toxic; settings: acute
Rattus norvegicus [3] = settings: for LD50: acute
Canidae = settings: acute; oral; Beagle
Mus musculus [4] = settings: acute
Oryctolagus sp. [5] = settings: acute, New Zealand
Oryctolagus sp. [6] = experiment: LD0; higher = less toxic; settings: acute; dermal; New Zealand
Rattus norvegicus [7] = settings: chronic, M
Homo sapiens [8] = settings: clinical, inhalation, M/F; for LOAEL: neurological
Rattus norvegicus [9] = settings: for NOAEL: M/F
Rattus norvegicus [10] = settings: repeat dose other; oral
Mus musculus [11] = settings: oral, CD1
Mus musculus [12] = settings: repeat dose other; oral
Homo sapiens [13] = settings: clinical, oral, M/F
Gallus sp. = settings: repeat dose other; oral
Rattus norvegicus [14] = settings: chronic; for NOAEL: Liver: Toxicity
Mus musculus [15] = settings: subchronic; oral; M/F; nephropathy, increased liver weight, hematological alterations, and clinical effects
Rattus norvegicus [16] = settings: uterotrophic; duration: 3 days; injection; subcutaneous; Active
Homo sapiens [17] = settings: clinical, oral
Anas platyrhynchos = settings: oral
[18] = short-term, duration: 28 days, oral, gavage, Sprague-Dawley
[19] = radioactive iodide uptake inhibition (raiu) in the thyroid

O=S(=O)([O-])c1cc(Nc2nc(Nc3ccccc3)nc(N3CCOCC3)n2)ccc1C=Cc1ccc(Nc2nc(Nc3ccccc3)nc(N3CCOCC3)n2)cc1S(=O)(=O)[O-].[Na+].[Na+]
NOAEL (Rattus norvegicus [1]): 825 mg/kg-day
LD0 (Rattus norvegicus [2]; dermal, semiocclusive, Wistar): > 2000 mg/kg
LD50 (Rattus norvegicus [3]; oral, Sprague-Dawley): 7000 mg/kg
LD50 (Rattus norvegicus [3]; oral, gavage, Sprague-Dawley): > 5000 mg/kg
NOAEL (Rattus norvegicus [3]; chronic, duration: 24 months, oral, diet, F, Wistar): 791 mg/kg-day
NOAEL (Rattus norvegicus [3]; chronic, duration: 24 months, oral, diet, M, Wistar): 524 mg/kg-day
NOAEL (Rattus norvegicus [3]; short-term, duration: 14 days, oral, gavage, F, Wistar): 1000 mg/kg-day
NOAEL (Rattus norvegicus [3]; short-term, duration: 14 days, oral, gavage, M, Wistar): 1000 mg/kg-day

CC(O)CN(CC(C)O)c1nc(Nc2ccc(S(=O)(=O)[O-])cc2)nc(Nc2ccc(/C=C/c3ccc(Nc4nc(Nc5ccc(S(=O)(=O)[O-])cc5)nc(N(CC(C)O)CC(C)O)n4)cc3S(=O)(=O)[O-])c(S(=O)(=O)[O-])c2)n1.[Na+].[Na+].[Na+].[Na+] (configuration not stated)
LC50 (Canidae): > 500 mg/kg
LC50 (Mus musculus [4]; oral, NMRI): > 1000 mg/kg
LC50 (Oryctolagus sp. [5]; oral): > 1000 mg/kg
LD50 (Rattus norvegicus [3]; oral, Wistar): > 2500 mg/kg
NOAEL (Rattus norvegicus [3]; short-term, duration: 5 days, oral, gavage, F, Wistar): 1020 mg/kg-day
NOAEL (Rattus norvegicus [3]; short-term, duration: 5 days, oral, gavage, M, Wistar): 1020 mg/kg-day
NOAEL (Rattus norvegicus [3]; subchronic, duration: 13 weeks, oral, gavage, F, Wistar): 300 mg/kg-day
NOAEL (Rattus norvegicus [3]; subchronic, duration: 13 weeks, oral, gavage, M, Wistar): 300 mg/kg-day

NC1CCCCC1N (configuration not stated) [1,2-Cyclohexanediamine]
LD0 (Oryctolagus sp. [6]): 7500 mg/kg
LD50 (Rattus norvegicus [3]; oral, gavage, Sprague-Dawley): 1100 mg
LOAEL (Rattus norvegicus [3]; [18]): 250 mg/kg-day
NOAEL (Rattus norvegicus [3]; [18]): 100 mg/kg-day
NOAEL (Rattus norvegicus [3]; subchronic, duration: 13 weeks, oral, gavage, Crj:CD): 125 mg/kg-day

C1COCCO1 [1,4-Dioxane]
LOAEL (Rattus norvegicus [7]; inhalation, atrophy and respiratory metaplasia of the olfactory epithelium): 180 mg/m3
NOAEL (Rattus norvegicus [7]; oral, liver and kidney toxicity): 9.6 mg/kg-day
NOAEL (Homo sapiens [8]; duration: 2 hours, ocular): 72.1 mg/m3
LOAEL (Rattus norvegicus [9]; chronic, duration: 104 weeks, inhalation, whole body, M, Fischer 344, respiratory): 180 mg/m3
NOAEL (Rattus norvegicus [9]; chronic, duration: 716 days, oral, drinking water, Sherman Wistar, hepatic): 9.6 mg/kg-day
NOAEL (Rattus norvegicus [9]; developmental, duration: 9 days, oral, gavage, Sprague-Dawley, developmental): 516 mg/kg-day
NOAEL (Rattus norvegicus [9]; subchronic, duration: 13 weeks, oral, drinking water, Fischer 344, hepatic): 52 mg/kg-day
LOAEL (Rattus norvegicus [10]): 1 mg/kg-day
NOAEL (Rattus norvegicus [10]): 0.5 mg/kg-day

Cc1ccccc1 [1-Methylbenzene]
LOAEL (Homo sapiens [8]; duration: 20 minutes): 56.5 mg/m3
NOAEL (Mus musculus [11]; short-term, duration: 28 days, drinking water, M, immunological): 22 mg/kg-day
LOAEL (Rattus norvegicus [9]; acute, duration: 1 days, oral, gavage, M, Long-Evans, neurological): 250 mg/kg-day
LOAEL (Mus musculus [12]): 260 mg/kg-day
NOAEL (Mus musculus [12]): 26 mg/kg-day

CCC(C#N)CC#N (configuration not stated) [2-Ethylbutanedinitrile]
LD0 (Rattus norvegicus [2]; oral, gavage, Sprague-Dawley): < 500 mg/kg

CNC(=O)O/N=C/C(C)(C)SC [Aldicarb]
LOAEL (Homo sapiens [13]; cholinesterase inhibition): 0.025 mg/kg-day
NOAEL (Homo sapiens [13]; cholinesterase inhibition): 0.01 mg/kg-day

[Cl][Al]([Cl])[Cl] [Aluminum chloride]
LOAEL (Gallus sp.): 44.5 mg/kg-day
LOAEL (Mus musculus [12]): 19.3 mg/kg-day
NOAEL (Mus musculus [12]): 1.93 mg/kg-day

[Ba+2].[OH-].[OH-] [Barium hydroxide]
LOAEL (Gallus sp.): 41.7 mg/kg-day
NOAEL (Gallus sp.): 20.8 mg/kg-day
LOAEL (Rattus norvegicus [10]): 19.8 mg/kg-day

SCc1ccccc1 [Benzenemethanethiol]
LD0 (Rattus norvegicus [2]; dermal, semiocclusive, Sprague-Dawley): ≥ 2000 mg/kg
LC50 (Mus musculus [4]; inhalation, Swiss): 904 mg/m3
LD50 (Rattus norvegicus [3]; injection, Intraperitoneal, Wistar): 373 mg/kg
LD50 (Rattus norvegicus [3]; oral, gavage, Wistar): 493 mg/kg

OC(O)C(Cl)(Cl)Cl [Chloral hydrate]
LOAEL (Homo sapiens [13]; central nervous system depression and gi irritation in humans): 10.7 mg/kg-day

[Cu+].[Cu+].[O-2] [Cuprous oxide]
LOAEL (Gallus sp.): 61.7 mg/kg-day
NOAEL (Gallus sp.): 47 mg/kg-day

ON=C1CCCCC1 [Cyclohexanone oxime]
LD0 (Rattus norvegicus [2]; oral, gavage, Fischer 344): > 300 mg/kg
LD50 (Mus musculus [4]; injection, Intraperitoneal): 250 mg/kg
LD50 (Oryctolagus sp. [5]; dermal, occlusive): > 5000 mg/kg

ClCCl [Dichloromethane]
NOAEL (Rattus norvegicus [14]; duration: 2 years, inhalation, intermittent): 695 mg/m3
NOAEL (Rattus norvegicus [14]; duration: 24 months, oral, drinking water): 5.85 mg/kg-day
LOAEL (Homo sapiens [8]; duration: 1 days, chamber): 1040 mg/m3
NOAEL (Rattus norvegicus [9]; chronic, duration: 2 years, inhalation, Sprague-Dawley, hepatic): 174 mg/m3
LOAEL (Rattus norvegicus [9]; chronic, duration: 14 weeks, inhalation, unknown, hepatic): 86.8 mg/m3
NOAEL (Rattus norvegicus [9]; chronic, duration: 104 weeks, oral, drinking water, Fischer-344, hepatic): 6 mg/kg-day
LOAEL (Rattus norvegicus [10]): 50 mg/kg-day
NOAEL (Rattus norvegicus [10]): 5.85 mg/kg-day

c1ccc2c(c1)-c1cccc3cccc-2c13 [Fluoranthene]
LOAEL (Mus musculus [15]): 250 mg/kg-day
NOAEL (Mus musculus [15]): 125 mg/kg-day
LOAEL (Mus musculus [11]; subchronic, duration: 90 days, gavage, M/F, hepatic): 125 mg/kg-day
LEL (Rattus norvegicus [16]): 10 mg/kg-day

CCC[C@@H]1C[C@@H](C(=O)N[C@@H]([C@H]2O[C@H](SC)[C@H](O)[C@@H](O)[C@H]2O)[C@@H](C)O)N(C)C1 [Lincomycin]
NOEL (Homo sapiens [17]; duration: 12 months, Change in gut flora): 2.5 mg/kg-day

[O-][Cl+3]([O-])([O-])[O-] [Perchlorate]
LOEL (Homo sapiens [13]; [19]): 0.02 mg/kg-day
NOEL (Homo sapiens [13]; [19]): 0.007 mg/kg-day

CC[C@@H]1CCN[C@H](C(=O)N[C@@H]([C@H]2O[C@H](SC)[C@H](O)[C@@H](O)[C@H]2O)[C@H](C)Cl)C1 [Pirlimycin]
NOEL (Homo sapiens [17]; capsule, M, Clostridium difficile in stool): 50 mg

CC(CCc1ccc(O)cc1)NCC(O)c1ccc(O)cc1.Cl (configuration not stated) [Ractopamine hydrochloride]
NOEL (Homo sapiens [17]; M, Changes in cardiovascular function variables): 0.067 mg/kg-day

O=[As][O-].[Na+] [Sodium arsenite]
LOAEL (Anas platyrhynchos): 12.8 mg/kg-day
NOAEL (Anas platyrhynchos): 5.14 mg/kg-day

O=C(O)c1ccc(C(=O)O)cc1 [Terephthalic acid]
NOEL (Rattus norvegicus [14]; duration: 2 years, oral, diet, Bladder: Hyperplasia): 142 mg/kg-day
LD0 (Rattus norvegicus [2]; oral): 2000 mg/kg

CN(C)[C@@H]1C(=O)C(C(N)=O)=C(O)[C@@]2(O)C(=O)C3=C(O)c4c(O)cccc4[C@@](C)(O)[C@H]3C[C@@H]12 [Tetracycline]
NOEL (Homo sapiens [17]; Selection of resistant bacterial strains): 0.033 mg/kg-day

COP(=O)(OC)C(O)C(Cl)(Cl)Cl (configuration not stated) [Trichlorfon]
LOEL (Homo sapiens [17]; duration: 10 weeks, Inhibition of acetylcholinesterase activity): 0.2 mg/kg-day
